Reference: patent US20030027981A1, “Urokinase-type plasminogen activator receptor” (priority 1989, published 2003)

B1: PAI-2: human type-2 plasminogen activator inhibitor purified from U937 cells (protein, UniProt P05120 1-415, looked up)
Plasminogen activator …: MEDLCVANTLFALNLFKHLAKASPTQNLFLSPWSISSTMAMVYMGSRGSTEDQMAKVLQFNEVGANAVTPMTPENFTSCGFMQQIQKGSYPDAILQAQAADKIHSSFRSLSSAINASTGNYLLESVNKLFGEKSASFREEYIRLCQKYYSSEPQAVDFLECAEEARKKINSWVKTQTKGKIPNLLPEGSVDGDTRMVLVNAVYFKGKWKTPFEKKLNGLYPFRVNSAQRTPVQMMYLREKLNIGYIEDLKAQILELPYAGDVSMFLLLPDEIADVSTGLELLESEITYDKLNKWTSKDKMAEDEVEVYIPQFKLEEHYELRSILRSMGMEDAFNKGRANFSGMSERNDLFLSEVFHQAMVDVNEEGTEAAAGTGGVMTGRTGHGGPQFVADHPFLFLIMHKITNCILFFGRFSSP

Columns and labels:
[1] = system: HT-1080 cells; experiment: Formation of cell-bound plasmin on HT-1080 cells in serum culture (tranexamic acid eluate, thioesterase assay); assay type: cell-based, human; conditions: for Bound plasmin activity: 2 h, serum medium, all with Plg 40 μg/ml, aprotinin, anti-Plg-1, TA (100 μM) also with anti-PAI-1 10 μg/ml; for activity at 10 µM / activity at 100 µM: Homo sapiens, HT-1080; for activity at 10 µM: Plg 40 μg/ml + TA 10 μM; for activity at 100 µM: Plg 40 μg/ml + TA 100 μM
Experimental: Human fibrosarcoma cells (HT-1080, CCL 121) were obtained from the American Type Culture Collection, Rockville, Md. Confluent cell layers were grown in plastic Linbro wells (2 cm^2; Flow Laboratories) in Eagle's minimal essential medium (MEM) supplemented with 10% heat-inactivated (56° C. for 60 minutes) fetal calf serum (Gibco), 100 IU/ml penicillin and 50 μg/ml streptomycin. After reaching confluence, the cells were rinsed three times with MEM containing 0.2% bovine serum albumin (BSA), then changed to either serum-free medium (0.5 ml) or medium containing 10% heat-inactivated and plasminogen-depleted (i.e. absorbed with lysine-Sepharose; Pharmacia, Uppsala, Sweden) fetal calf serum as indicated in the Examples.
Human plasminogen (with glutamic acid N-terminal) was prepared by affinity chromatography on lysine-Sepharose (Deutsch, D. G., and E. T. Mertz, “Plasminogen: Purification from human plasma by affinity chromatography”, Science 170: 1095-1097, 1970) from freshly separated, unfrozen human plasma pretreated with 10 μM p-nitrophenyl guanidinobenzoate, 1 mM phenylmethylsulfonylfluoride and 0.1 μg/ml of an anti-catalytic murine monoclonal IgG antibody to human t-PA (ESP-2; see MacGregor, I. R. et al., “Characterization of epitopes on human tissue plasminogen activator recognised by a group of monoclonal antibodies”, Thromb. Haem. 53: 45-50, 1985); American Diagnostica, Greenwich, Conn.).
Res. 46: 755-766, 1987) titration equivalent of 3.6 IU u-PA/ml; an anti-catalytic murine monoclonal IgG antibody to human u-PA (clone 2 (10 μg/ml) in Nielsen, L. S. et al., “Enzyme-linked immunosorbent assay for human urokinase-type plasminogen activators and its proenzyme using a combination of monoclonal and polyclonal antibodies”, J. Immunoassay 7: 209-228, 1986); the anti-catalytic monoclonal antibody to human t-PA (10 μg/ml); a neutralising murine monoclonal IgG antibody to human PAI-1 (Nielsen, L. S. et al., “Monoclonal antibodies to human 54,000 molecular weight plasminogen activator inhibitor from fibrosarcoma cells—inhibitor neutralization and one-step affinity purification”, Thromb. Haem. 55: 206-212, 1986) (10 μg/ml) and diisopropyl fluorophosphate (DFP)-inactivated u-PA (0-10 μg/ml).
The plasmin activity of culture supernatant samples (50 μl) was assayed directly by incubation with the thioester substrate solution above (200 μl) for 30 minutes (serum-free supernatants) or 3 hours (serum-containing supernatants) at 37° C. An estimate of the amount of active plasmin present was made from calibration curves using human plasmin dilutions in serum-free medium covering the appropriate ranges of activity.
Plasmin bound to the cell layer was recovered and assayed as follows. After harvest of culture medium, the cells were rinsed three times with PBS (plasmin assays of further rinses were negative); then the bound plasmin was specifically eluted (Miles, L. A., and E. F. Plow, “Binding and activation of plasminogen on the platelet surface”, J. Biol. Chem. 260: 4303-4311, 1985) with a solution of 1 mM tranexamic acid in the same rinsing solution (150 μl/well). Plasmin activity was assayed in eluate samples (50 μl) as above with an incubation time of 3 hours at 37° C. Tranexamic acid at 1 mM had no effect on the thioesterase activity of plasmin in these assays.
The following additions were made to cell layers growing in MEM medium (0.5 ml) containing 10% heat-inactivated and plasminogen-depleted fetal calf serum: native human plasminogen (Plg, 40 μg/ml); anti-catalytic monoclonal antibody to human u-PA (10 μg/ml); anti-catalytic monoclonal antibody to human t-PA (10 μg/ml); PAI-2 (titration equivalent of 3.6 UI u-PA/ml); anti-catalytic monoclonal antibody to human plasmin (20 μg/ml); aprotinin (200 KIU/ml); tranexamic acid (TA, as shown). The cultures were incubated for the times shown before assay of cell-bound plasmin. The incubation with plasminogen was used as the 100% control for bound plasmin. […]

[2] = molecular target: thrombospondin (Homo sapiens, UniProt P07996); conditions: purified thrombospondin; cited from earlier work
Chain of thrombospondin (P07996 19-1170): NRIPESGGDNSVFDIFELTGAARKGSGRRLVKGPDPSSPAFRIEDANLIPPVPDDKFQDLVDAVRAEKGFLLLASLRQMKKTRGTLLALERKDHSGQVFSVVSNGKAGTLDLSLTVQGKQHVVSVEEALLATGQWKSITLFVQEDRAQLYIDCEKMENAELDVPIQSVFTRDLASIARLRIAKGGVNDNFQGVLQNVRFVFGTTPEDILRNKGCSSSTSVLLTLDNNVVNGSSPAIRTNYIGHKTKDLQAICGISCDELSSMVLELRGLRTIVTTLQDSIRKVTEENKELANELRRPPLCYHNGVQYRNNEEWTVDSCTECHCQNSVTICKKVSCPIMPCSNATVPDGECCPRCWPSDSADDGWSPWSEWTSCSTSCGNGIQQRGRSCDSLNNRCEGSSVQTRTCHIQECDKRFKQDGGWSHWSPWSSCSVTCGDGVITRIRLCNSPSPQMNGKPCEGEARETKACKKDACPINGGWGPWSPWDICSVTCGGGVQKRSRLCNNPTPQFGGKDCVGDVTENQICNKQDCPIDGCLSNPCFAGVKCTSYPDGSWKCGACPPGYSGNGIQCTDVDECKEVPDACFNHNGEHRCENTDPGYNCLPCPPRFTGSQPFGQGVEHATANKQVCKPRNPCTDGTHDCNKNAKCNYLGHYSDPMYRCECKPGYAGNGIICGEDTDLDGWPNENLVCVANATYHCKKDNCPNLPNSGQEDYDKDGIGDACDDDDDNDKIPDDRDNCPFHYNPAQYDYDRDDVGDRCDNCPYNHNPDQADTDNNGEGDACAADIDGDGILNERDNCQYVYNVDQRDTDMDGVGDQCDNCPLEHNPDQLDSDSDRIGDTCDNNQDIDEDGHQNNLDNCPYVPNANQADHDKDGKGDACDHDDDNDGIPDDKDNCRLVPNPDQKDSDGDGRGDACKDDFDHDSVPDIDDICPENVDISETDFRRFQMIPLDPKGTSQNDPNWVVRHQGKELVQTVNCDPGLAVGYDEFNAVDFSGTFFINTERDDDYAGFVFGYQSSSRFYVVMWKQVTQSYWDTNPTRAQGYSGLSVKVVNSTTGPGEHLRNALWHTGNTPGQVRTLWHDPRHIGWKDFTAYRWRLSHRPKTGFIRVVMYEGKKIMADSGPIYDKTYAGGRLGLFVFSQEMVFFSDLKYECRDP

[3] = molecular target: u-PAR (Homo sapiens, UniProt Q03405); experiment: Chemical cross-linking of 125I-ATF to purified u-PAR; assay type: binding; conditions: unlabelled reagent 100 nM, u-PAR approx. 1 nM, 125I-ATF approx. 1 nM
Chain of u-PAR (Q03405 23-305 limits assumed): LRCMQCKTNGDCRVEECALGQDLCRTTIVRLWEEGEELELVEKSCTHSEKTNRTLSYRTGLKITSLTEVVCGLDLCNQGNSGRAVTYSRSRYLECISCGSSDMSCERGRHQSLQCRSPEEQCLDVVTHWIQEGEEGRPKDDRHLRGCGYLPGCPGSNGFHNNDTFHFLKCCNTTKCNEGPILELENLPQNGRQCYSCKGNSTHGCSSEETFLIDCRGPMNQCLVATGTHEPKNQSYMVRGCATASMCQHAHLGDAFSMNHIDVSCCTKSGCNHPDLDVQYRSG
Experimental: B) Affinity column eluate was diluted to yield an approximate concentration of u-PAR of 1 nM during the assay. The samples were preincubated alone (lane 2) or in the presence of the following unlabelled reagents at a concentration of 100 nM: bovine serum albumin (lane 3), t-PA (lane 4), plasminogen (lane 5), murine epidermal growth factor (lane 6), ATF (lane 7), active 54 kD u-PA (lane 8), DFP-inactivated 54 kD u-PA (lane 9). After preincubation for 15 min at room temperature, ^125I-labelled ATF (approximately 1 nM) was added, followed by incubation for 1 hour at 4° C. After incubation, chemical cross-linking was performed with DSS, after which the samples were analyzed by SDS-PACE on a 6-16% gradient gel under non-reducing conditions and autoradiography. […] Electrophoretic mobilities of molecular weight standard proteins are inducated (kD).
Cross-linking of u-PAR in complex mixtures or purified fractions to ^125I-labelled ATF was performed as described for solubilized receptor (Nielsen et al., 1988), except that 2 mM disuccinimidylsuberate (DSS) was used for cross-linking. Cross-linking of purified u-PAR to DFP-treated u-PA for analysis by SDS-PAGE and silver-staining was performed in the same manner, except that non-labelled DFP-treated u-PA was used as the ligand.

[4] = 3 h, serum medium with Plg 40 μg/ml (=100%), anti-u-PA 10 μg/ml, anti-t-PA 10 μg/ml, PAI-2 equiv. 3.6 IU u-PA/ml, aprotinin 200 KIU/ml, anti-Plg-1 20 μg/ml
[5] = 17 h, serum medium with Plg 40 μg/ml (=100%), additions as b555

Row | Molecule | Bound plasmin activity [1] [ng] | activity at 10 µM ([1]; 3 h) [%] | activity at 100 µM ([1]; 3 h) [%] | activity at 10 µM ([1]; 17 h) [%] | activity at 100 µM ([1]; 17 h) [%] | Kd [2] [nM] | Plasmin recovered from the cell layer ([1]; 40 μg/ml human plasminogen in 0.5 ml serum medium, 2 cm^2 cell layer, 3 hours 37° C.) [ng] | Plasmin measurable in the medium ([1]; 40 μg/ml human plasminogen in 0.5 ml serum medium, 3 hours 37° C.) [ng] | Bound plasmin activity (%) [1, 4] [%] | Bound plasmin activity (%) [1, 5] [%] | Competition for binding and cross-linking of 125I-labelled ATF to purified u-PAR [3] | Bound plasmin activity (%) ([1]; cells preincubated 1 h with inhibitor (anti-u-PA 10 μg/ml, PAI-2 equiv. 3.6 IU u-PA/ml), rinsed, then 3 h with Plg 40 μg/ml in serum medium)
1 | NC[C@H]1CC[C@H](C(=O)O)CC1 [TA, tranexamic acid] | 0 | 9.7 | 2.2 | 34 | 13 |  |  |  |  |  |  | 
2 | Plg: native human plasminogen (glutamic acid N-terminal) purified from human plasma on lysine-Sepharose | 12 |  |  |  |  | 35 | 28 | 10 | 100 | 100 | no competition | 
3 | aprotinin | 3.3 |  |  |  |  |  |  |  | 13.2 | 7.8 |  | 
4 | B1 |  |  |  |  |  |  |  |  | 48 | 19 |  | 54
